Test results from patent US20090247646A1, “USE OF RESVERATROL AND DERIVATIVES THEREOF FOR PROMOTING THE WELLNESS STATE IN MAMMALS” (priority 2006, published 2009).
Values joined by “and” are separate entries in the source; they are usually repeats but may differ in a detail not shown here. Equal values may be shown once.

Test system: gene expression in heart tissue
Assay: Genome-wide gene expression in heart tissue of old mice fed a resveratrol-supplemented diet (Affymetrix Mouse Genome 430 2.0 array)
Format: in vivo
[1] = anaphase-promoting complex subunit 5, Genebank ID AK003821
[2] = calreticulin 3, Genebank ID AI324734
[3] = casein kinase II, alpha 1 polypeptide, Genebank ID BB283759
[4] = cathepsin B, Genebank ID M14222
[5] = cathepsin Z, Genebank ID NM_022325
[6] = cylindromatosis (turban tumor syndrome), Genebank ID AK013508
[7] = dual specificity phosphatase 6, Genebank ID NM_026268
[8] = dynein, cytoplasmic, heavy chain 1, Genebank ID NM_030238
[9] = dystrophia myotonica kinase, B15, Genebank ID AW108486
[10] = eukaryotic translation elongation factor 2, Genebank ID BC007152
[11] = eukaryotic translation initiation factor 2, subunit 3, structural gene X-linked, Genebank ID NM_012010
[12] = eukaryotic translation initiation factor 3, subunit 10 (theta), Genebank ID AW701127
[13] = eukaryotic translation initiation factor 4, gamma 1, Genebank ID BF227830
[14] = eukaryotic translation initiation factor 4A1, Genebank ID BI656407
[15] = eukaryotic translation initiation factor 4E like 3, Genebank ID AI449084
[16] = expressed sequence AI663987, Genebank ID BB764994
[17] = expressed sequence AW319487, Genebank ID NM_054085
[18] = f-box only protein 9, Genebank ID AK018482
[19] = f-box only protein 9, Genebank ID NM_023605
[20] = furin (paired basic amino acid cleaving enzyme), Genebank ID NM_011046
[21] = gene trap locus 6, Genebank ID BG923744
[22] = glutamyl-prolyl-tRNA synthetase, Genebank ID BM238943
[23] = golgi associated, gamma adaptin ear containing, ARF binding protein 3, Genebank ID BB501734
[24] = heat shock protein 1, beta, Genebank ID BI154147
[25] = homocysteine-inducible, endoplasmic reticulum stress-inducible, ubiquitin-like domain member 1, Genebank ID AI835088
[26] = homocysteine-inducible, endoplasmic reticulum stress-inducible, ubiquitin-like domain member 1, Genebank ID NM_022331
[27] = insulin degrading enzyme, Genebank ID AV027702
[28] = isoprenylcysteine carboxyl methyltransferase, Genebank ID BF462080
[29] = large tumor suppressor 2, Genebank ID BE986745
[30] = lipocalin 7, Genebank ID BC005738
[31] = membrane metallo endopeptidase [BLAST], Genebank ID AV174022
[32] = methionyl aminopeptidase 1, Genebank ID BG064851
[33] = microtubule associated serine/threonine kinase 2, Genebank ID NM_008641
[34] = mitochondrial ribosomal protein L9, Genebank ID AK021196
[35] = mitochondrial ribosomal protein L27, Genebank ID NM_053161
[36] = mitochondrial ribosomal protein L43, Genebank ID NM_053164
[37] = mitogen activated protein kinase kinase kinase 4, Genebank ID U11548
[38] = myotubularin related protein 1, Genebank ID BB381813
[39] = myotubularin related protein 6, Genebank ID BC020019
[40] = neural precursor cell expressed, developmentally down-regulted gene 4, Genebank ID BG073415
[41] = proteasome (prosome, macropain) subunit, alpha type 2, Genebank ID NM_008944
[42] = protein kinase inhibitor, alpha, Genebank ID AK010212
[43] = protein kinase, interferon inducible double stranded RNA dependent activator, Genebank ID NM_011871
[44] = protein phosphatase 1B, magnesium dependent, beta isoform, Genebank ID AJ271833
[45] = protein tyrosine phosphatase 4a2, Genebank ID AW495875
[46] = protein tyrosine phosphatase 4a3, Genebank ID AK014601
[47] = protein tyrosine phosphatase, non-receptor type 21, Genebank ID AW987375
[48] = protein tyrosine phosphatase-like (proline instead of catalytic arginine), member a, Genebank ID BB014781
[49] = puromycin-sensitive aminopeptidase, Genebank ID AK010446
[50] = ribonuclease P2, Genebank ID BG069849
[51] = ribosome binding protein 1, Genebank ID AK019964
[52] = ring finger protein 13, Genebank ID NM_011883
[53] = sarcolemma associated protein, Genebank ID NM_032008
[54] = serum/glucocorticoid regulated kinase, Genebank ID NM_011361
[55] = sialyltransferase 10 (alpha-2,3-sialyltransferase VI), Genebank ID NM_018784
[56] = suppressor of initiator codon mutations, related sequence 1 (S. cerevisiae), Genebank ID BI693609
[57] = synaptojanin 2 binding protein, Genebank ID AK008254
[58] = tousled-like kinase 1, Genebank ID BM244995
[59] = transferrin receptor, Genebank ID AK011596
[60] = transient receptor potential cation channel, subfamily M, member 7, Genebank ID AV320241
[61] = tumor rejection antigen gp96, Genebank ID BE995678
[62] = ubiquitin protein ligase E3 component n-recognin 1, Genebank ID BQ173927
[63] = ubiquitin specific protease 3, Genebank ID BM936366
[64] = ubiquitin specific protease 10, Genebank ID NM_009462
[65] = ubiquitin-conjugating enzyme E2D 3 (UBC4/5 homolog, yeast), Genebank ID AK009276

Oc1ccc(/C=C/c2cc(O)cc(O)c2)cc1 [resveratrol, 3,4′,5-Trihydroxy-trans-stilbene]
share of genes that resembled or exceeded the expression level of the young group (among genes changed by resveratrol treatment, heart): 58.1%
% of res effect [1]: 74.85%
Median RES [1]: 33166
Median RES (basic leucine zipper and W2 domains 1, Genebank ID AV144956 (three lines), listed as RES): 19500 and 38679 and 25745
% of res effect (basic leucine zipper and W2 domains 1, Genebank ID AV144956 (three lines), listed as res): 83.81% and 115.0685% and 138.536%
% of res effect (calnexin, Genebank ID BI653492): 100.0356%
Median RES (calnexin, Genebank ID BI653492): 30204
% of res effect [2]: 114.042%
Median RES [2]: 8927
% of res effect [3]: 134.9706%
Median RES [3]: 5588
% of res effect [4]: 76.17%
Median RES [4]: 194089
% of res effect [5]: 116.4892%
Median RES [5]: 43097
% of res effect (cullin 3, Genebank ID AV273804): 77.09%
Median RES (cullin 3, Genebank ID AV273804): 22604
% of res effect [6]: 103.8541%
Median RES [6]: 8255
expression of genes involved in protein modification (down-regulated in the group of old animals, resveratrol group): these effects were reversed
% of res effect [7]: 107.0693%
Median RES [7]: 13740
% of res effect [8]: 152.317%
Median RES [8]: 30053
% of res effect [9]: 145.8017%
Median RES [9]: 62794
% of res effect [10]: 164.0928%
Median RES [10]: 165689
% of res effect [11]: 52.7%
Median RES [11]: 10650
% of res effect [12]: 107.144%
Median RES [12]: 55723
% of res effect [13]: 137.7081%
Median RES [13]: 73196
% of res effect [14]: 101.3515%
Median RES [14]: 71501
% of res effect [15]: 79.59%
Median RES [15]: 14990
% of res effect (eukaryotic translation initiation factor 4E, Genebank ID BB406487 (two lines), listed as res): 101.5818% and 143.9243%
% of res effect [16]: 178.7778%
Median RES [16]: 12520
% of res effect [17]: 126.3056%
Median RES [17]: 19940
% of res effect [18]: 67.8%
Median RES [18]: 6555
% of res effect [19]: 158.6897%
Median RES [19]: 48649
% of res effect [20]: 190.9945%
Median RES [20]: 8279
% of res effect [21]: 134.4155%
Median RES [21]: 40130
% of res effect [22]: 85.98%
Median RES [22]: 16720
% of res effect [23]: 171.8414%
Median RES [23]: 5532
% of res effect [24]: 153.7873%
Median RES [24]: 150912
% of res effect [25]: 127.2443%
Median RES [25]: 90964
% of res effect [26]: 133.1523%
Median RES [26]: 107786
% of res effect [27]: 106.9366%
Median RES [27]: 25035
% of res effect [28]: 160.1528%
Median RES [28]: 6260
% of res effect [29]: 56.11%
Median RES [29]: 6754
% of res effect [30]: 179.6828%
Median RES [30]: 14280
% of res effect [31]: 119.1558%
Median RES [31]: 8513
% of res effect [32]: 80.68%
Median RES [32]: 10496
% of res effect [33]: 161.6802%
Median RES [33]: 45140
% of res effect [34]: 80.96%
Median RES [34]: 25890
% of res effect [35]: 182.0376%
Median RES [35]: 91619
% of res effect [36]: 104.1651%
Median RES [36]: 61436
% of res effect [37]: 124.4234%
Median RES [37]: 9718
% of res effect [38]: 78.35%
Median RES [38]: 14340
% of res effect [39]: 86.67%
Median RES [39]: 16336
% of res effect [40]: 52.89%
Median RES [40]: 86633
share of age-changed genes changed in the direction of the group of younger adult mice (of 1285 genes, heart): 45.5%
% of res effect [41]: 104.7586%
Median RES [41]: 139883
% of res effect [42]: 59.34%
Median RES [42]: 40073
% of res effect [43]: 171.5674%
Median RES [43]: 13990
% of res effect [44]: 63.71%
Median RES [44]: 52488
% of res effect [45]: 71.59%
Median RES [45]: 200548
% of res effect [46]: 210.2152%
Median RES [46]: 52165
% of res effect [47]: 218.6485%
Median RES [47]: 4135
% of res effect [48]: 76.7738%
Median RES [48]: 98966
% of res effect [49]: 212.0408%
Median RES [49]: 19697
expression of genes related to protein synthesis and protein folding (reduced in old animals, old animals fed resveratrol-supplemented diet): upregulated to or close to the level found in young animals
% of res effect [50]: 103.1963%
Median RES [50]: 23730
% of res effect [51]: 152.3511%
Median RES [51]: 37971
% of res effect [52]: 142.3463%
Median RES [52]: 33170
% of res effect [53]: 86.14%
Median RES [53]: 11160
Median RES (serine/threonine kinase 17b (apoptosis-inducing), Genebank ID AV173139 (two lines), listed as RES): 8039 and 12069
% of res effect (serine/threonine kinase 17b (apoptosis-inducing), Genebank ID AV173139 (two lines), listed as res): 97.38% and 163.165%
% of res effect [54]: 173.4519%
Median RES [54]: 72667
% of res effect [55]: 87.76%
Median RES [55]: 16650
% of res effect [56]: 80.5962%
Median RES [56]: 203121
% of res effect [57]: 121.5779%
Median RES [57]: 40710
number of genes at a level of 80-90% compared to the young group (text b59, heart): 62
number of genes that reached a level of 70-80% (text b59, heart): 53
% of res effect [58]: 79.5126%
Median RES [58]: 4589
% of res effect [59]: 54.0373%
Median RES [59]: 86773
% of res effect [60]: 129.8764%
Median RES [60]: 19508
% of res effect [61]: 94.11%
Median RES [61]: 53900
% of res effect [62]: 97.81%
Median RES [62]: 7571
% of res effect [63]: 151.8677%
Median RES [63]: 9725
% of res effect [64]: 186.31%
Median RES [64]: 12090
% of res effect [65]: 69.45%
Median RES [65]: 40250
number of genes changed in the direction of the group of younger adult mice (within the 1285 genes significantly changed between young and old mice (at least 1.25-fold, p<0.01), heart): 585
